Key:
[1] = system: MUC1 in CHO1d1D/MUC1F-clone2 cells; experiment: Cell surface expression of MUC1 by immunocytology of non-permeabilized cells (FIG. 11); format: cell-based, Chinese Hamster; details: 1 mM, cells grown in GalNAc
Experimental: Immunocytology: Two different procedures were applied: i) For general screening purposes, cells grown in plates or flasks were trypsinized, washed in saline, and airdried on multiwell coverslides. Slides were fixed in ice-cold acetone and stained with monoclonal antibodies and FITC-conjugated rabbit anti-mouse Ig as previously described^50. ii) For analysis of cell surface expression, cells were seeded in 6 well plates and grown for 6 hours in Hams F12 medium with serum until approximately 30-50% subconfluent. […] Cells were washed once in PBS (phosphate buffered saline without Calcium and Magnesium) and subsequently fixed in 2 ml 3% paraformaldehyde at 25° C. for 20 min followed by three washes with PBS. Free aldehyde groups were quenched by incubating in 2 mL 50 mM Ammonium Chloride in PBS for 10 min, followed by three washes with PBS and three washes with 5 min incubations each with PBS containing 0.2% Fish Skin Gelatin (Sigma). Immunostaining of cells was performed by incubation with monoclonal antibodies for 40 min at 25° C., followed by three washes with PBS and three washes of 5 min each with PBS containing 0.2% Fish Skin Gelatin. […]
We therefore investigated the effect of treatment with GalNAcα-benzyl of CHO1d1D/MUC1F-clone2 cells grown in the presence of GalNAc. […] Initially we analyzed surface expression of MUC1 by immunocytology. […]

HT29 MTX cells = details: cited from earlier work

## CC(=O)N[C@H]1[C@@H](OCc2ccccc2)O[C@H](CO)[C@H](O)[C@@H]1O [BzlαGalNAc, benzyl-N-acetyl-alpha-D-galactosaminide]
[1]
  cell surface expression of MUC1: strong inhibition

## CC(=O)N[C@H]1[C@@H](OCc2ccccc2)O[C@H](CO)[C@H](O)[C@@H]1O [GalNAcα-benzyl, benzyl-N-acetyl-alpha-D-galactosaminide]
HT29 MTX cells
  inhibition of mucin secretion: Inhibition of mucin secretion

From US20080038809A1, “ISOLATED LECTIN POLYPEPTIDES CONSISTING OF TRUNCATED […] UDP-GalNAc:POLYPEPTIDE N- ACETYLGALACTOSAMINYLTRANSFERASES” (GLYCOZYM APS, priority 2002, published 2008)
